The source of these data is patent publication US20240246964A1 (Arbutus Biopharma Corporation, priority 2021, published 2024).

Assay [1] concerns the target human PD-L1 (Homo sapiens (Human), UniProt Q9NZQ7). Nature of the assay: T cell activation luciferase reporter cell culture system (T Cell Activation Assay). The assay is classed as cell-based. As to conditions: luciferase reporter assay; PD-L1 aAPC/CHO-K1 cells with PD-1 effector Jurkat T cells. (Reporter assays use an easily measured gene product as a stand-in for the process of interest.)

In assay [2] the target is PD-L1 His protein / PD-1 Fc protein (Homo sapiens (Human), UniProt Q9NZQ7). Nature of the assay: HTRF Assay (PD-1/PD-L1 interaction). The assay is classed as binding. As to conditions: PD-L1 His 6 nM, PD-1 Fc 6 nM. Background: TR-FRET usually uses a lanthanide donor and a delayed reading to cut background.

pEC50, pIC50: −log10 of the molar value. A value given as a limit tells only on which side of the number the result lay.

In general, pEC50 refers to the negative decadic logarithm of the EC50, by convention in mol/L. As a reminder, the pIC50 is the IC50 on a negative log10 scale, so that one unit is a factor of ten. High values mean a small IC50, low ones a large IC50.

human PD-L1, sequence (Q9NZQ7 19-290): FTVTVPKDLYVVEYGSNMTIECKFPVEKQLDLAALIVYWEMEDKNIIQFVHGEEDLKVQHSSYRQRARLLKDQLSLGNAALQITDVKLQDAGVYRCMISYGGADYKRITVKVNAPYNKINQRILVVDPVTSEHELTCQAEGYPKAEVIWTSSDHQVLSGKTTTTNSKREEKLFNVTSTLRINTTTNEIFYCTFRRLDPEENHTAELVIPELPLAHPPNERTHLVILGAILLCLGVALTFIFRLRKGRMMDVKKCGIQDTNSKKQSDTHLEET
PD-L1 His protein / PD-1 Fc protein, sequence (Q9NZQ7 19-238): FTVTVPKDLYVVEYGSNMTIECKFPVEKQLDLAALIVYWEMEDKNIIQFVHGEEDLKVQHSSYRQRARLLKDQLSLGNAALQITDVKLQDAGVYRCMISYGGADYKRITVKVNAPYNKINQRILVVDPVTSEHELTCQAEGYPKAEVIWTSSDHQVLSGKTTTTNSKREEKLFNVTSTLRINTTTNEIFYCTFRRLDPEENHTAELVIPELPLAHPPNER

For the compound `CNCc1ccc(-c2cccc(-c3ccnc(-c4cc(CN5CC(CC(=O)O)C5)cc(OC)c4)c3Cl)c2Cl)nc1OC` [Compound 172, 2-(1-(3-(3-chloro-4-(2-chloro-3-(6-methoxy-5-((methylamino)methyl)pyridine-2-yl)phenyl)pyridine-2-yl)-5-methoxybenzyl)pyridine1333-3-yl)acetic acid], in assay [1], the pEC50 was no more than 5.00. In assay [2], this compound showed a pIC50 of 8.48.
For `CNCc1ccc(-c2cccc(-c3ccnc(-c4cc(CN5CC6(CC(C(=O)O)C6)C5)cc(OC)c4)c3Cl)c2Cl)nc1OC` [Compound 173, 2-(3-(3-chloro-4-(2-chloro-3-(6-methoxy-5-((methylamino)methyl)pyridine-2-yl)phenyl)pyridine-2-yl)-5-methoxybenzyl)-2-azaspiro[3.3]heptane-6-carboxylic acid], in that order: no more than 5.00 and 7.49.
Turning to `CNCc1ccc(-c2cccc(-c3ccnc(-c4cc(CNC56CC(C(=O)O)(C5)C6)cc(OC)c4)c3Cl)c2Cl)nc1OC` [Compound 174, 3-((3-(3-chloro-4-(2-chloro-3-(6-methoxy-5-((methylamino)methyl)pyridine-2-yl)phenyl)pyridine-2-yl)-5-methoxybenzyl)amino)bicyclo[1.1.1]pentane-1-carboxylic acid], in assay [1], the pEC50 was no more than 5.00. This compound gave a pIC50 in assay [2] of 7.63.
On the same counts, the results for `CNCc1ccc(-c2cccc(-c3ccnc(-c4cc(CNCC56CC(C(=O)O)(C5)C6)cc(OC)c4)c3Cl)c2Cl)nc1OC` [Compound 175, 3-(((3-(3-chloro-4-(2-chloro-3-(6-methoxy-5-((methylamino)methyl)pyridine-2-yl)phenyl)pyridine-2-yl)-5-methoxybenzyl)amino)methyl)bicyclo[1.1.1]pentane-1-carboxylic acid] are 5.93 and 8.06.
On the same counts, the results for `COc1cc(-c2nccc(-c3cccc(-c4cc(F)c(CNC[C@@H]5CCC(=O)N5)c(OC)n4)c3Cl)c2Cl)cc2c1CN(C[C@H](C)O)CC2` [Compound 176, (S)-5-((((6-(2-chloro-3-(3-chloro-2-(2-((S)-2-hydroxypropyl)-8-methoxy-1,2,3,4-tetrahydroisoquinolin-6-yl)pyridine-4-yl)phenyl)-4-fluoro-2-methoxypyridin-3-yl)methyl)amino)methyl)pyridine1334ne-2-one] are 8.00 and 8.98.
`COc1nc(-c2cccc(-c3ccnc(-c4ccc5c(c4)S(=O)(=O)CCNC5)c3Cl)c2Cl)ccc1CNC[C@@H]1CCC(=O)N1` [Compound 177, (S)-5-((((6-(2-chloro-3-(3-chloro-2-(1,1-dioxido-2,3,4,5-tetrahydrobenzo[f][1,4]pyridine1334n-8-yl)pyridine-4-yl)phenyl)-2-methoxypyridin-3-yl)methyl)amino)methyl)pyridine1334ne-2-one] had a pEC50 in assay [1] of 6.76. In addition, the pIC50 in assay [2] is 8.75.
For `COc1nc(-c2cccc(-c3ccnc(-c4ccc5c(c4)CN(CCNC[C@@H]4CCC(=O)N4)C5=O)c3Cl)c2Cl)cc(F)c1CNC[C@@H]1CCC(=O)N1` [Compound 178, 5-(3-chloro-4-(2-chloro-3-(4-fluoro-6-methoxy-5-(((((S)-5-oxopyrrolidin-2-yl)methyl)amino)methyl)pyridine-2-yl)phenyl)pyridine-2-yl)-2-(2-((((S)-5-oxopyrrolidin-2-yl)methyl)amino)ethyl)isoindolin-1-one], in that order: 6.84 and 8.90.
For `COc1cc(-c2nccc(-c3cccc(-c4ccc(CNC[C@@H]5CCC(=O)N5)c(OC)n4)c3Cl)c2Cl)ccc1C1=NCCN1` [Compound 179, (S)-5-((((6-(2-chloro-3-(3-chloro-2-(4-(4,5-dihydro-1H-imidazol-2-yl)-3-methoxyphenyl)pyridine-4-yl)phenyl)-2-methoxypyridin-3-yl)methyl)amino)methyl)pyridine1334ne-2-one], in that order: 7.51 and 8.61.
For `COc1cc(-c2nccc(-c3cccc(-c4ccc(C5=NCCN5)c(OC)n4)c3Cl)c2Cl)ccc1CNC[C@@H](O)CC(=O)O` [Compound 180, (S)-4-((4-(3-chloro-4-(2-chloro-3-(5-(4,5-dihydro-1H-imidazol-2-yl)-6-methoxypyridin-2-yl)phenyl)pyridine-2-yl)-2-methoxybenzyl)amino)-3-hydroxybutanoic acid], in that order: 7.44 and 8.25.
In assay [1], `COc1cc(-c2nccc(-c3cccc(-c4ccc(CNC[C@@H]5CCC(=O)N5)c(OC)n4)c3Cl)c2Cl)cc(F)c1CNC[C@@H]1CCO1` [Compound 181, (S)-5-((((6-(2-chloro-3-(3-chloro-2-(3-fluoro-5-methoxy-4-(((((S)-oxetan-2-yl)methyl)amino)methyl)phenyl)pyridine-4-yl)phenyl)-2-methoxypyridin-3-yl)methyl)amino)methyl)pyridine1335ne-2-one] showed a pEC50 of 7.52. Also, the pIC50 in assay [2] is 7.95.
On the same counts, the results for `COC(=O)C1CN(Cc2nn3cc(-c4nccc(-c5cccc(-c6ccc(CNC[C@@H]7CCC(=O)N7)c(OC)n6)c5Cl)c4Cl)cc3c(=O)n2C)C1` [Compound 182, methyl (S)-1-((6-(3-chloro-4-(2-chloro-3-(6-methoxy-5-((((5-oxopyrrolidin-2-yl)methyl)amino)methyl)pyridine-2-yl)phenyl)pyridine-2-yl)-3-methyl-4-oxo-3,4-dihydropyrrolo[2,1-f][1,2,4]pyridine-2-yl)methyl)azetidine-3-carboxylate] are 7.41 and 8.61.
For `COc1nc(-c2cccc(-c3ccnc(-c4ccc5c(CNC[C@@H]6CCC(=O)N6)nn(C)c5c4)c3Cl)c2Cl)ccc1CNC[C@@H]1CCC(=O)N1` [Compound 183, (S)-5-((((6-(2-chloro-3-(3-chloro-2-(1-methyl-3-(((((S)-5-oxopyrrolidin-2-yl)methyl)amino)methyl)-1H-indazol-6-yl)pyridine-4-yl)phenyl)-2-methoxypyridin-3-yl)methyl)amino)methyl)pyridine1335ne-2-one], in that order: 7.35 and 8.53.
On the same counts, the results for `COc1nc(-c2cccc(-c3ccnc(-c4ccc5c(c4)CCC[C@@H]5NC[C@@H]4CCC(=O)N4)c3Cl)c2Cl)ccc1CNC[C@@H]1CCC(=O)N1` [Compound 184, (S)-5-((((6-(2-chloro-3-(3-chloro-2-((S)-5-((((S)-5-oxopyrrolidin-2-yl)methyl)amino)-5,6,7,8-tetrahydronaphthalen-2-yl)pyridine-4-yl)phenyl)-2-methoxypyridin-3-yl)methyl)amino)methyl)pyridine1335ne-2-one] are 7.09 and 7.81.
Compound `COc1nc(-c2cccc(-c3ccnc(-c4ccc5c(c4)CCC[C@H]5NC[C@@H]4CCC(=O)N4)c3Cl)c2Cl)ccc1CNC[C@@H]1CCC(=O)N1` [Compound 185, (S)-5-((((6-(2-chloro-3-(3-chloro-2-((R)-5-((((S)-5-oxopyrrolidin-2-yl)methyl)amino)-5,6,7,8-tetrahydronaphthalen-2-yl)pyridine-4-yl)phenyl)-2-methoxypyridin-3-yl)methyl)amino)methyl)pyridine1335ne-2-one] had a pEC50 in assay [1] of 7.71. The compound further had a pIC50 in assay [2] of 8.00.
